{"source": "patent US8163776B2", "about": "“Method of immunomodulation using thione-forming disulfides” (Grassetti family Trust, priority 2001, dated 2012)", "key": {"[1]": {"tested_on": "feline immunodeficiency virus (FIV)", "assay": "CPDS in an FIV-positive cat with FIDS symptoms (Example 10)", "type": "in vivo", "source_text": "A very ill, young, spayed male cat ws presented with symptoms of feline immunodeficiency syndrome (FIDS). He had fever, diarrhea, and his glands were swollen. His coat was dull and the cat was listless.\nHis blood tested positive for feline immunodeficiency syndrome (FIV), as determined by ELISA testing with feline immunodeficiency virus antibody from Indexx Laboratories (Westbrook, Me.). The cat's weight upon presentation was 9.5 lbs.\nTreatment of the cat with CPDS commenced the same day with a daily dose of 280 mg CPDS in the cat's diet. The regimen was continued for 30 days. […] The hair on the cat's muzzle and back was still thin. CPDS treatment was continued at 140 mg/day for another 60 days. […] His coat was rich and shiny, his eyes became bright, and his behavior was normal for a spayed male cat. The cat's weight after 60 days of treatment was 10.2 lbs, a gain of about 300 grams."}, "NK cells": {"tested_on": "NK cells", "assay": "NK cell activity, standard 51Cr release assay with YAC-1 target cells", "type": "in vivo, BALB/c mice", "design": "NK activity (%): concentration or dose not given beside the values", "settings": "for NK activity (%): % specific lysis, E:T 200:1", "experimental": "NK cell activity was determined by using a standard NK assay (Coligan, J. E. et al. 1993. “In Vitro Assays for mouse lymphocyte function” Chapter 3, Current Protocol in Imnunology, John Wiley & Sons, New York) using YAC-1 cells (ATCC #TIB-160) as target cells. These cells were washed twice with HBSS, counted, and suspended at a concentration of 5×10^6 cells/ml. About 5×10^6 cells were labeled with 100 μCi of ^51Cr. Cells were incubated 90 minutes at 37° C. in a 5% CO2 humidified incubator and then washed three times with RPMI, counted, and suspended at a concentration of 1×10^5 cells/ml in complete RPMI. About 100 μl of target cells (˜1×10^4 cells) was put into each well of a round-bottom 96 wells plate.\nFour dilutions of splenocytes were prepared: 2×10^7 cells/ml, 1×10^7 cells/ml, 0.5×10^7 cells/ml, and 0.25×10^7 cells/ml. A volume of 100 μl of each splenocyte dilution was plated in triplicate with the target cells for a final effector:target (E:T) ratio of 200:1, 100:1, 50:1 and 25:1.\nA maximal control release was prepared in triplicate on each plate by adding 100 μl of 5% Triton X-100 solution instead of effector cells. Spontaneous release was prepared in triplicate on each plate by adding 100 μl of complete RPMI instead of effector cells. Plates were centrifuged and incubated 4 hours at 37° C. in a 5% CO2 humidified incubator. After incubation, the supernatants were collected and the ^51Cr release was determined using a gamma counter. The average cpm count was calculated for each triplicate. The average cpm count for the total and spontaneous release was also calculated. The percentage (%) of specific lysis is calculated using the following formula:\nWhere, ER=Experimental release of ^51Cr • TR=Total release of ^51Cr • SR=Spontaneous release of ^51Cr\nThe % of specific lysis for every ratio (200:1, 100:1, 50:1 and 25:1) was calculated. A graphic representation of the results is done: specific lysis % versus the ratio to verify the linearity. For BALB/c mice strains which usually show low NK activity, specific lysis corresponding to an E:T ratio of 200:1 is used to represent the data for each animal. The mean NK activity is then calculated for each control and treated group. Student's T test was performed between the control group and the treated group. The p value was calculated for statistical significance.\nIn this assay, the effect on the NK activity of feeding Balb/c mice with compound CPDS for short term (6 days) and longer term (30 days) was evaluated. The NK cells are a lymphocyte subset with non specific cytotoxicity activity. Results are presented as the % of specific lysis of target cells for a ratio of 200:1 (Table 8 and FIG. 2). Balb/c mice normally show low NK activity which justifies the choice of the 200:1 ratio for the comparison between groups."}, "lymphocytes": {"tested_on": "lymphocytes", "assay": "Mitogenic proliferation of splenocytes (3H-thymidine incorporation)", "type": "in vivo, BALB/c mice", "experimental": "Splenocytes were diluted to a concentration of 1×10^6 cells/ml in complete RPMI media. Aliquots of 100 μl were transferred into a 96 well flat bottom plate. Mitogen stock solutions were prepared at a concentration of 1 mg/ml in D-PBS and frozen at −20° C. Working solution were prepared freshly in complete RPMI media at the following concentration (10×): 500 μg/ml PHA, 50 μg/ml concanavalin A (con A), and 50 μg/ml LPS. Aliquots of 100 μl of each mitogens were transferred in triplicate in the corresponding wells. Final concentration (1×) in each well was 50 μg/ml PHA, 5 μg/ml con A, and 5 μg/ml LPS. For negative control, 100 μl of complete RPMI media was added in triplicate, instead of the mitogens. Cells were incubated for a total of 72 hours in 37° C., 5% CO2, humidified incubator. Twenty hours before the end of the incubation, 1 μCi per well of ^3H-thymidine was added to each well. Cells were harvested using a Harvester® 96 from Tomtec. Filters were transferred into scintillation vials. Scintillation liquid, 4 ml was added to each vial. Radioactivity was counted using Beckman LS-6500 Beta counter. The results were expressed in CPM. The mean and standard deviation of triplicate samples are calculated. Results are expressed as stimulation index (SI) as follows:\n[formula] • where experimental value=with mitogens (PHA, ConA and LPS) and control value=with RPMI. For each mitogen, results were compared and Student's T test was performed between the control group and the treated group. The p value was calculated for statistical significance.\nThe lymphoproliferative response is a widely studied function of T and B lymphocytes. Three different mitogens with different specificity for different lymphocyte subsets were used. PHA and ConA are standard mitogens that stimulate mice T cells and LPS is a mitogen which stimulates B cells. Results are expressed in proliferation capacity (Table 10 and FIGS. 5 and 6). […] This potential may present some therapeutic application against some immune dysfunctions where the lymphoproliferative response is impaired (e.g., viral infections)."}, "[2]": {"settings": "FIV-positive cat, end of thirty days at 280 mg CPDS daily"}, "[3]": {"settings": "Group 6, 6 days on CPDS diet, Mean ± S.D."}, "[4]": {"settings": "30 days on CPDS diet vs normal diet"}, "[5]": {"settings": "30 days on CPDS diet, Mean ± S.D."}}, "note": "Several values for one entry are separate records, joined by “and”; a condition that tells them apart may be missing. Equal values may be shown once.", "data": [{"smiles": "O=C(O)c1ccc(SSc2ccc(C(=O)O)cn2)nc1", "note": "[CPDS, 6,6′-dithiodinicotinic acid]", "values": [{"measurement": "Cat's health", "setting": "[1]; FIV-positive cat, 280 mg CPDS daily in diet, after a few days", "value": "showed improvement"}, {"measurement": "Symptoms (fever, diarrhea, swollen glands)", "setting": "[1]; [2]", "value": "fever had subsided, the diarrhea was gone, its glands were no longer swollen"}, {"measurement": "Test for the FIDS antibody", "setting": "[1]; [2]", "value": "still tested positive"}, {"measurement": "Overall state of the cat", "setting": "[1]; after 30 days at 280 mg/day and another 60 days at 140 mg/day", "value": "appeared to be healed"}, {"measurement": "Weight gain of the cat", "setting": "[1]; after 60 days of treatment vs presentation", "value": "about 300 grams"}, {"measurement": "Cat's weight after treatment", "setting": "[1]; after 60 days of treatment, 9.5 lbs upon presentation", "value": 10.2, "unit": "lbs"}, {"measurement": "NK activity, effect of CPDS diet", "setting": "NK cells; 6 days, vs control", "value": "No significant effect"}, {"measurement": "NK activity, variation", "setting": "NK cells; Group 2, 30 days on CPDS diet vs Group 1", "value": 24.7, "unit": "%"}, {"measurement": "NK activity (%)", "setting": "NK cells; Group 2, 30 days on CPDS diet, Mean ± S.D.", "value": "6.8 ± 1.4", "unit": "%"}, {"measurement": "NK activity (%)", "setting": "NK cells; Group 2, 30 days on CPDS diet, individual mice", "value": "8.7% and 7.9% and 5.0% and 6.9% and 6.3% and 5.6% (2×) and 8.2%"}, {"measurement": "NK activity, variation", "setting": "NK cells; Group 6, 6 days on CPDS diet vs group 5", "value": "−13.1", "unit": "%"}, {"measurement": "NK activity (%)", "setting": "NK cells; [3]", "value": "7.9 ± 2.0", "unit": "%"}, {"measurement": "NK activity (%)", "setting": "NK cells; Group 6, 6 days on CPDS diet, individual mice", "value": "10.2% and 7.0% and 6.6%"}, {"measurement": "Mitogenic Proliferation (SI), LPS, effect of CPDS diet", "setting": "lymphocytes; 6 days, n=3", "value": "No effect"}, {"measurement": "Mitogenic Proliferation (SI), PHA, effect of CPDS diet", "setting": "lymphocytes; 6 days, n=3", "value": "No effect"}, {"measurement": "Mitogenic Proliferation, LPS", "setting": "lymphocytes; 30 days on CPDS diet (samples G2-1 to G2-8), individual mice, 5 μg/ml LPS", "value": "3799.3 and 1426.0 and 4760.0 and 4304.7 and 842.0 and 1407.3 and 2438.0 and 2039.3"}, {"measurement": "Mitogenic Proliferation, CON A", "setting": "lymphocytes; 30 days on CPDS diet (samples G2-1 to G2-8), individual mice, 5 μg/ml con A", "value": "6928.7 and 2621.3 and 11240.7 and 8041.3 and 915.3 and 1023.3 and 3308.7 and 4993.3"}, {"measurement": "Mitogenic Proliferation, PHA", "setting": "lymphocytes; 30 days on CPDS diet (samples G2-1 to G2-8), individual mice, 50 μg/ml PHA", "value": "3565.3 and 1168.0 and 2175.3 and 2300.0 and 603.3 and 717.3 and 1652.6 and 886.0"}, {"measurement": "Mitogenic Proliferation, No stimulation", "setting": "lymphocytes; 30 days on CPDS diet (samples G2-1 to G2-8), individual mice, no unit in table, method: CPM", "value": "78.0 and 69.3 and 66.7 and 82.0 and 57.3 and 72.7 and 72.0 and 58.7"}, {"measurement": "Mitogenic Proliferation, CON A, Variation(%)", "setting": "lymphocytes; [4]", "value": 210.2, "unit": "%"}, {"measurement": "Mitogenic Proliferation, LPS, Variation(%)", "setting": "lymphocytes; [4]", "value": 82.0, "unit": "%"}, {"measurement": "Mitogenic Proliferation, No stimulation, Variation(%)", "setting": "lymphocytes; [4]", "value": 0.2, "unit": "%"}, {"measurement": "Mitogenic Proliferation, PHA, Variation(%)", "setting": "lymphocytes; [4]", "value": 144.4, "unit": "%"}, {"measurement": "Mitogenic Proliferation, CON A", "setting": "lymphocytes; [5]", "value": "4984.1 ± 3641"}, {"measurement": "Mitogenic Proliferation, LPS", "setting": "lymphocytes; [5]", "value": "2627.1 ± 1475"}, {"measurement": "Mitogenic Proliferation, No stimulation", "setting": "lymphocytes; [5]", "value": "69.6 ± 8"}, {"measurement": "Mitogenic Proliferation, PHA", "setting": "lymphocytes; [5]", "value": "1633.4 ± 1010"}, {"measurement": "Mitogenic Proliferation (SI), LPS, effect of CPDS diet", "setting": "lymphocytes; 30 days, n=8, arrow image = increase", "value": "tendency to increase"}, {"measurement": "Mitogenic Proliferation, CON A", "setting": "lymphocytes; [3]", "value": "4441.8 ± 1733"}, {"measurement": "Mitogenic Proliferation, LPS", "setting": "lymphocytes; [3]", "value": "937.9 ± 232"}, {"measurement": "Mitogenic Proliferation, No stimulation", "setting": "lymphocytes; [3]", "value": "50.5 ± 23"}, {"measurement": "Mitogenic Proliferation, PHA", "setting": "lymphocytes; [3]", "value": "205.3 ± 74"}, {"measurement": "Mitogenic Proliferation, LPS", "setting": "lymphocytes; Group 6, 6 days on CPDS diet, individual mice, 5 μg/ml LPS, no unit in table, method: CPM", "value": "1052.0 and 670.0 and 1091.3"}, {"measurement": "Mitogenic Proliferation, CON A", "setting": "lymphocytes; Group 6, 6 days on CPDS diet, individual mice, 5 μg/ml con A, no unit in table, method: CPM", "value": "4876.7 and 2532.0 and 5916.7"}, {"measurement": "Mitogenic Proliferation, PHA", "setting": "lymphocytes; Group 6, 6 days on CPDS diet, individual mice, 50 μg/ml PHA, no unit in table, method: CPM", "value": "237.3 and 120.0 and 258.7"}, {"measurement": "Mitogenic Proliferation, No stimulation", "setting": "lymphocytes; Group 6, 6 days on CPDS diet, individual mice, no unit in table, method: CPM", "value": "78.0 and 34.7 and 38.7"}, {"measurement": "Proliferation with all three mitogens (PHA, ConA, LPS), in words", "setting": "lymphocytes; after 6 days of treatment with CPDS", "value": "tendency towards an increase"}]}]}
